# Results published in US12458581B2, “Carboxylic acid loaded salt carrier and the method for producing thereof” (priority 2021, dated 2025).
# Where two headings read alike, the source gives them in different places.
# Legend:
# [1] = pH measurement of 0.1 M aqueous solutions; assay type: physicochemical; conditions: r.t.; for pH values compound: 0.1 M in millipore water, average of at least three measurements; for pH value / pH value of the reference material (non-loaded carrier salt): 0.1 M; for pH value: compound made via in-situ process
# Description: For the pH measurements, a Seven2Go portable pH meter S2 (pH measuring-range: −2 to 20; resolution: 0.01) with an InLab Ultra Micro-ISM electrode (measuring range: pH −1 to pH 11; low temperature membrane glass type; ceramic diaphragm; reference system with Ag^+ ion trap by argenthal) as well as with an in-lab routine pH electrode (measuring range: pH 0 to pH 14; ceramic diaphragm; reference system with Ag^+ ion trap by argenthal) from Mettler-Toledo AG (Analytical, Switzerland) was used.
# For sake of comparability, compounds of the same loading ratio n=2, which is 2:1 of the loaded carboxylic acid with respect to the carrier carboxylic acid, were selected for this analysis. […] The analytes were dissolved in millipore water, stirred for 5 minutes in an airtight vial to perform the pH measurements thereafter at r.t. All measurements were performed at 0.1 molar (M) concentration of the samples, which is 0.1 mol per liter (mol/L).
# For sake of reliability, every result stated is the average of at least three single measurements. […] The numbers 1-73 (nr., first row) are used as an assignment for the 73 pairs, comprising the compound of invention (third row), the corresponding carrier carboxylic acid (fourth row) and the loaded carboxylic acid (fifth row), as used in the FIG. 6.
# [2] = mean particle diameter
# [3] = Thermal analysis (TGA/DTA); assay type: physicochemical
# Protocol: Thermal analysis was carried out with a Linseis STA 1600 simultaneous thermal analyzer to determine simultaneous changes of weight (TGA signal) and caloric measurable transformations (DTA signal) in a temperature range between r.t. and 300° C.
SMILES,pH values compound [1],other results
CC(=O)O.CC(=O)O.CC(O)C(=O)[O-].CC(O)C(=O)[O-].[Mg+2] (centres unmarked) [MgLac-HAc [2]],4.43,
CC(=O)O.CC(=O)O.O=C1OC(C(O)CO)C([O-])=C1O.O=C1OC(C(O)CO)C([O-])=C1O.[Mg+2] (centres unmarked) [MgAsc-HAc [2]],4.34,
CC(=O)O.CC(=O)O.O=C([O-])c1ccccc1.O=C([O-])c1ccccc1.[Ca+2] [CaBen-HAc [2]],4.46,
CC(O)C(=O)[O-].CC(O)C(=O)[O-].CCC(=O)O.CCC(=O)O.[Mg+2] (centres unmarked) [MgLac-HProp [2]],4.45,
"CC(=O)O.CC(O)C(=O)O.CCC(=O)O.O=C([O-])CC(O)C(=O)[O-].[Ca+2] (centres unmarked) [CaMa-HAc-HProp-HLac [1,1,1]]",4.97,
"CC(=O)O.CC(O)C(=O)[O-].CC(O)C(=O)[O-].CCC(=O)O.[Mg+2] (centres unmarked) [MgLac-HAc-HProp [1,1]]",4.48,
CC(=O)O.CC(=O)O.CC(=O)O.CC(=O)[O-].CC(=O)[O-].[Ca+2] [CaAc-HAc [3]],4.62,
CCC(=O)O.CCC(=O)O.O=C([O-])c1ccccc1.O=C([O-])c1ccccc1.[Ca+2] [CaBen-HProp [2]],4.64,
CC(=O)[O-].CC(=O)[O-].CCC(=O)O.CCC(=O)O.[Mg+2] [MgAc-HProp [2]],5.51,
O=CO.O=CO.O=C[O-].O=C[O-].[Mg+2] [MgFo-HFo [2]],6.54,
CC(O)C(=O)O.CC(O)C(=O)O.O=C([O-])/C=C/C(=O)[O-].[Mg+2] [MgFum-HLac [2]],3.69,
"CC(=O)O.CC(=O)O.O=C[O-].O=C[O-].[Mg+2] [MgFo-HAc [2], magnesium formate with loaded acetic acid]",5.10,pH value [1]: 5.10
O=C([O-])/C=C/C(=O)[O-].O=CO.O=CO.[Ca+2] [CaFum-HFo [2]],3.58,
CC(=O)O.CC(=O)O.NC(CCC(=O)[O-])C(=O)[O-].[Ca+2] (centres unmarked) [CaGlu-HAc [2]],4.52,
CC(=O)O.CC(=O)O.CC(=O)[O-].CC(=O)[O-].[Mg+2] [MgAc-HAc [2]],5.06,
O=C([O-])/C=C/C(=O)[O-].O=CO.O=CO.[Mg+2] [MgFum-HFo [2]],3.76,
"CC(=O)O.CCC(=O)O.O=C([O-])C(O)C(O)C(=O)[O-].[Ca+2] (centres unmarked) [CaT-HAc-HProp [1,1], calcium tartrate with loaded acetic acid and propionic acid]",3.63,"pH value [1]: 3.63; dav [2]: 220 μm; dav ([2]; listed as CaT-HAc—HProp [1,1]): approximately 220 μm"
CC(O)C(=O)O.CC(O)C(=O)O.O=C([O-])/C=C/C(=O)[O-].[Ca+2] [CaFum-HLac [2]],3.68,
"CC(=O)O.CC(O)C(=O)O.CCC(=O)O.O=C([O-])C(O)C(O)C(=O)[O-].[Ca+2] (centres unmarked) [CaT-HAc-HPro-HLac [1,1,1]]",3.33,
CC(=O)O.CC(=O)O.O=C([O-])CC(O)C(=O)[O-].[Ca+2] (centres unmarked) [CaMa-HAc [2]],4.53,
CCC(=O)O.CCC(=O)O.O=C([O-])/C=C/C(=O)[O-].[Ca+2] [CaFum-HProp [2]],4.27,
CC(=O)O.CC(=O)O.CC(=O)O.CC(=O)O.CC(=O)O.CC(=O)O.O=C1OC(C(O)CO)C([O-])=C1O.O=C1OC(C(O)CO)C([O-])=C1O.[Ca+2] (centres unmarked) [CaAsc-HAc [6]],4.12,
CCC(=O)O.CCC(=O)O.O=C([O-])CCC(=O)[O-].[Ca+2] [CaSuc-HProp [2]],5.01,
CC(O)C(=O)O.CC(O)C(=O)O.CC(O)C(=O)[O-].CC(O)C(=O)[O-].[Ca+2] (centres unmarked) [CaLac-HLac [2]],3.45,
CC(=O)O.CC(=O)O.NC(CC(=O)[O-])C(=O)[O-].[Ca+2] (centres unmarked) [CaAsp-HAc [2]],4.42,
"CC(=O)O.CC(=O)O.CC(=O)O.CC(=O)O.O=C([O-])C(O)C(O)C(=O)[O-].[Ca+2] (centres unmarked) [CaT-HAc [4], calcium tartrate with loaded acetic acid]",3.33,pH value [1]: 3.33
CC(O)C(=O)O.CC(O)C(=O)O.O=C[O-].O=C[O-].[Mg+2] (centres unmarked) [MgFo-HLac [2]],3.72,

SMILES,pH values compound [1],other results
CCC(=O)O.CCC(=O)O.O=C([O-])/C=C/C(=O)[O-].[Mg+2] [MgFum-HProp [2]],4.24,
CC(O)C(=O)O.CC(O)C(=O)O.CC(O)C(=O)[O-].CC(O)C(=O)[O-].[Mg+2] (centres unmarked) [MgLac-HLac [2]],3.31,
CC(=O)O.CC(=O)O.CC(O)C(=O)[O-].CC(O)C(=O)[O-].[Ca+2] (centres unmarked) [CaLac-HAc [2]],4.58,
"O=C([O-])C(O)C(O)C(=O)[O-].[Ca+2] (centres unmarked) [calcium tartrate, reference compound]",,pH value of the reference material (non-loaded carrier salt) [1]: 7.33
CCC(=O)O.CCC(=O)O.O=C([O-])CO.O=C([O-])CO.[Ca+2] [CaGly-HProp [2]],4.63,
CC(=O)O.CC(=O)O.O=C([O-])/C=C/C(=O)[O-].[Ca+2] [CaFum-HAc [2]],4.17,
"CCC(=O)O.CCC(=O)O.O=C([O-])C(O)C(O)C(=O)[O-].[Ca+2] (centres unmarked) [CaT-HProp [2], calcium tartrate with loaded propionic acid]",3.71,
CC(O)C(=O)O.CC(O)C(=O)O.CC(O)C(=O)O.CC(O)C(=O)[O-].CC(O)C(=O)[O-].[Ca+2] (centres unmarked) [CaLac-HLac [3]],3.38,
CC(=O)O.CC(=O)O.O=C[O-].O=C[O-].[Ca+2] [CaFo-HAc [2]],4.74,
"CC(O)C(=O)O.CC(O)C(=O)O.O=C([O-])C(O)C(O)C(=O)[O-].[Ca+2] (centres unmarked) [CaT-HLac [2], calcium tartrate with loaded lactic acid]",3.27,pH value [1]: 3.27
CC(=O)O.CC(=O)O.O=C([O-])CCC(=O)[O-].[Mg+2] [MgSuc-HAc [2]],4.69,
"CCC(=O)O.CCC(=O)O.O=C[O-].O=C[O-].[Mg+2] [MgFo-HProp [2], magnesium formate with loaded propionic acid]",4.84,"thermal stability of the carrier carboxylic acid salt [3]: up to 300 °C; water release on heating (TGA) ([3]; constant heating, 1° C. to 300° C., FIG. 4(A)): no water is released; total loss of weight (TGA) ([3]; dry sample, heating in the range of 125° C. to 200° C., 2 K/min, nitrogen): 24.4%"
CC(O)C(=O)O.CC(O)C(=O)O.CC(O)C(=O)O.CC(O)C(=O)O.CC(O)C(=O)[O-].CC(O)C(=O)[O-].[Ca+2] (centres unmarked) [CaLac-HLac [4]],3.30,
"CCC(=O)O.CCC(=O)O.O=C1OC(C(O)CO)C([O-])=C1O.O=C1OC(C(O)CO)C([O-])=C1O.[Ca+2] (centres unmarked) [CaAsc-HProp [2], calcium ascorbate with loaded propionic acid]",4.88,
CC(=O)O.CC(=O)O.O=C([O-])CCC(=O)[O-].[Ca+2] [CaSuc-HAc [2]],4.69,
NC(CC(=O)[O-])C(=O)[O-].O=C(O)CO.O=C(O)CO.[Ca+2] (centres unmarked) [CaAsp-HGly [2]],3.88,
"CC(=O)O.CC(=O)O.CC(=O)O.O=C1OC(C(O)CO)C([O-])=C1O.O=C1OC(C(O)CO)C([O-])=C1O.[Ca+2] (centres unmarked) [CaAsc-HAc [3], calcium ascorbate with loaded acetic acid]",4.22,
CC(=O)O.CC(=O)O.CC(=O)O.CC(=O)O.O=C1OC(C(O)CO)C([O-])=C1O.O=C1OC(C(O)CO)C([O-])=C1O.[Ca+2] (centres unmarked) [CaAsc-HAc [4]],4.22,
CC(=O)O.CC(=O)O.O=C([O-])/C=C/C(=O)[O-].[Mg+2] [MgFum-HAc [2]],4.13,
CCC(=O)O.CCC(=O)O.O=C([O-])CC(O)C(=O)[O-].[Ca+2] (centres unmarked) [CaM-HProp [2]],4.45,
CC(=O)O.CC(=O)O.CC(=O)O.CC(=O)O.CC(=O)O.O=C([O-])C(O)C(O)C(=O)[O-].[Ca+2] (centres unmarked) [CaT-HAc [5]],3.84,
CC(=O)[O-].CC(=O)[O-].CCC(=O)O.CCC(=O)O.[Ca+2] [CaAc-HProp [2]],5.16,
"O=C[O-].O=C[O-].[Mg+2] [magnesium formate, reference compound]",,pH value of the reference material (non-loaded carrier salt) [1]: 7.90
"CC(=O)O.CC(=O)O.O=C1OC(C(O)CO)C([O-])=C1O.O=C1OC(C(O)CO)C([O-])=C1O.[Ca+2] (centres unmarked) [CaAsc-HAc [2], calcium ascorbate with loaded acetic acid]",4.42,
CC(O)C(=O)O.CC(O)C(=O)O.CC(O)C(=O)O.CC(O)C(=O)O.NC(CCC(=O)[O-])C(=O)[O-].[Ca+2] (centres unmarked) [CaGlu-HLac [4]],3.60,
CCC(=O)O.CCC(=O)O.O=C([O-])CCC(=O)[O-].[Mg+2] [MgSuc-HProp [2]],5.18,
